# Laboratory results published in US11358948B2, “CRBN ligands and uses thereof” (Kymera Therapeutics, Inc., priority 2017, dated 2022).
# Structures can show the parent of a compound that is named as a salt.
# Target: Untagged CRBN-DDB1 complex (Homo sapiens (Human), UniProt Q96SW2)
# Test: Fluorescence Polarization (FP) assay, displacement of Cy5-labeled thalidomide
# Assay type: binding
# Details: untagged CRBN-DDB1 50 nM, Cy5-labeled thalidomide 20 nM, 10 min room temperature
# Procedure: The final solution contained 50 mM HEPES, 200 mM NaCl and 2 mM DTT, pH 7.5. The mixtures were incubated at room temperature for 10 min. The FP signals were recorded on an EnVision plate reader (Perkin Elmer) using the following settings: Excitation Light (%): 100; Measurement Height: 12; G-Factor: 1; Detector Gain 1: 500; Detector Gain 2: 500; Flash Number: 100. Dose-dependent loss of FP signals was fitted by four-parameter Logistic Function using GraphPad Prism 7.0 and the IC50 values were reported for each compound.
# Chain of Untagged CRBN-DDB1 complex (Q96SW2 whole entry): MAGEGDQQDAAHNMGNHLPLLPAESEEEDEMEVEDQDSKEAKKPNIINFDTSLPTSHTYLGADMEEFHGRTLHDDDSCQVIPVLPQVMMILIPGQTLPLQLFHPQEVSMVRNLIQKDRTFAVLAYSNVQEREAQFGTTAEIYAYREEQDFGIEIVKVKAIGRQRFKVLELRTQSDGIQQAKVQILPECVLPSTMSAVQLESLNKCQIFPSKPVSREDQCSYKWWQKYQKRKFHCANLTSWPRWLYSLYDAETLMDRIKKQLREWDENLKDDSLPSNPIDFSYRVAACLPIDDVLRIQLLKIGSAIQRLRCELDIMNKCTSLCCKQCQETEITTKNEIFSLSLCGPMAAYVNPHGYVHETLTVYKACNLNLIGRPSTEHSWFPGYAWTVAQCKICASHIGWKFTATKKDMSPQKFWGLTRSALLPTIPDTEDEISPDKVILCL
# Chain of Untagged CRBN-DDB1 complex (Q16531 whole entry partner): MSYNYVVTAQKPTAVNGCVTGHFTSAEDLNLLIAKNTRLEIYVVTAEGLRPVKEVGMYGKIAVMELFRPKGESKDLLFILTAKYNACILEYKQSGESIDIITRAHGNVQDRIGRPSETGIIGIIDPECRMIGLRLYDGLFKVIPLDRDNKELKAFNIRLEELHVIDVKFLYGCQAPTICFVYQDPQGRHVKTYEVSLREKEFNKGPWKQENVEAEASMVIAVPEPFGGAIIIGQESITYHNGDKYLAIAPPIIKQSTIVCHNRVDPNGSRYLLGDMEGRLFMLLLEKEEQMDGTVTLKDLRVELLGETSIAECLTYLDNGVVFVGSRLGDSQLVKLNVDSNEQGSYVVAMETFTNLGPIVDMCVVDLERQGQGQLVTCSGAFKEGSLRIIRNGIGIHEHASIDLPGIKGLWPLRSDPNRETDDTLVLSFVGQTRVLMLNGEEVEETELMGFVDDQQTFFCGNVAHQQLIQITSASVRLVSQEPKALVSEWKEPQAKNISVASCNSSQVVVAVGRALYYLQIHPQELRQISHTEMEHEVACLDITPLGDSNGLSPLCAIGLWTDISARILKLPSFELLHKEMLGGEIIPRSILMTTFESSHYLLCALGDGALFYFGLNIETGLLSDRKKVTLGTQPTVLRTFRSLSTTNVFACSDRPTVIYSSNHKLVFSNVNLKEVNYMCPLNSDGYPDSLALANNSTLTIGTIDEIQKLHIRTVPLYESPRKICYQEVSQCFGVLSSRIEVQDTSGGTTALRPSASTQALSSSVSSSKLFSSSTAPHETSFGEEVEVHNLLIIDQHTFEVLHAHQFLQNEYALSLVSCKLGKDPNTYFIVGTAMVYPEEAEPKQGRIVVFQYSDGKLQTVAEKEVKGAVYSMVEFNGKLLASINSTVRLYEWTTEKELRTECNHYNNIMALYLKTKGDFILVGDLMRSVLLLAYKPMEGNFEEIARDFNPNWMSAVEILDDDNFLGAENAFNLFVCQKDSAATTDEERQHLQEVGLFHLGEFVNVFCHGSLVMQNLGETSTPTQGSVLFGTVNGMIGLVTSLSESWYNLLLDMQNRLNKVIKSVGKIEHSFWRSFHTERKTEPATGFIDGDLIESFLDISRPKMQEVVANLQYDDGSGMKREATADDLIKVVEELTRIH
row,IC50 [nM],Structure (SMILES)
1,> 100000,"O=C1CCC(N2C(=O)Cc3ccccc32)C(=O)N1 (centres unmarked) [Compound I-3, 3-(2-Oxo-2,3-dihydro-1H-indol-1-yl)piperidine-2,6-dione]"

# Target: His-tagged CRBN-DDB1 complex (Homo sapiens (Human), UniProt Q96SW2)
# Test: Time-Resolved Fluorescence Resonance Energy Transfer (TR-FRET) assay, displacement of Cy5-labeled thalidomide
# Assay type: binding
# Details: read-out: CRBN HTRF IC50
# Procedure: The mixture were incubated at room temperature for 1 hour. […] Quantitative loss of FRET efficiency as a function of compound concentrations was fitted by a four-parameter Logistic Function using GraphPad Prism 7.0 and the IC50 values were reported for each compound.
# Chain of His-tagged CRBN-DDB1 complex (Q96SW2 whole entry): as the sequence (Q96SW2 whole entry) above
# Chain of His-tagged CRBN-DDB1 complex (Q16531 whole entry partner): as the sequence (Q16531 whole entry partner) above
row,Structure (SMILES),IC50 [nM]
1,"O=C1CCC(N2C(=O)Cc3ccccc32)C(=O)N1 (centres unmarked) [Compound I-3, 3-(2-Oxo-2,3-dihydro-1H-indol-1-yl)piperidine-2,6-dione]",10000 to 100000
2,"CN(C)Cc1ccc2c(c1)n(C)c(=O)n2C1CCC(=O)NC1=O (centres unmarked) [Compound I-61, 3-(5-((dimethylamino)methyl)-3-methyl-2-oxo-2,3-dihydro-1H-benzo[d]imidazol-1-yl)piperidine-2,6-dione]",1000 to 10000
3,"CC(=O)Nc1ccc2c(c1)n(C)c(=O)n2C1CCC(=O)NC1=O (centres unmarked) [Compound I-62, N-(1-(2,6-dioxopiperidin-3-yl)-3-methyl-2-oxo-2,3-dihydro-1H-benzo[d]imidazol-5-yl)acetamide]",< 1000
4,"Cc1ccc2c(c1)n(C)c(=O)n2C1CCC(=O)NC1=O (centres unmarked) [Compound I-63, 3-(3,5-dimethyl-2-oxo-2,3-dihydro-1H-benzo[d]imidazol-1-yl)piperidine-2,6-dione]",< 1000
5,"Cn1c(=O)n(C2CCC(=O)NC2=O)c2ccc(CN)cc21 (centres unmarked) [Compound I-64, 3-(5-(Aminomethyl)-3-methyl-2-oxo-2,3-dihydro-1H-benzo[d]imidazol-1-yl)piperidine-2,6-dione]",< 1000
6,"Cn1c(=O)n(C2CCC(=O)NC2=O)c2ccc(N)cc21 (centres unmarked) [Compound I-65, 3-(5-Amino-3-methyl-2-oxo-2,3-dihydro-1H-1,3-benzodiazol-1-yl)piperidine-2,6-dione Hydrochloride]",< 1000
7,"CC(=O)NCc1ccc2c(c1)n(C)c(=O)n2C1CCC(=O)NC1=O (centres unmarked) [Compound I-66, N-((1-(2,6-dioxopiperidin-3-yl)-3-methyl-2-oxo-2,3-dihydro-1H-benzo[d]imidazol-5-yl)methyl)acetamide]",< 1000
8,"CCNC(=O)Nc1ccc2c(c1)n(C)c(=O)n2C1CCC(=O)NC1=O (centres unmarked) [Compound I-67, 1-(1-(2,6-dioxopiperidin-3-yl)-3-methyl-2-oxo-2,3-dihydro-1H-benzo[d]imidazol-5-yl)-3-ethylurea]",< 1000
9,"CNc1ccc2c(c1)n(C)c(=O)n2C1CCC(=O)NC1=O (centres unmarked) [Compound I-68, 3-(3-methyl-5-(methylamino)-2-oxo-2,3-dihydro-1H-benzo[d]imidazol-1-yl)piperidine-2,6-dione]",< 1000
10,"CN(C)c1ccc2c(c1)n(C)c(=O)n2C1CCC(=O)NC1=O (centres unmarked) [Compound I-69, 3-(5-(dimethylamino)-3-methyl-2-oxo-2,3-dihydro-1H-benzo[d]imidazol-1-yl)piperidine-2,6-dione]",< 1000
11,"CNC(=O)c1ccc2c(c1)n(C)c(=O)n2C1CCC(=O)NC1=O (centres unmarked) [Compound I-70, 1-(2,6-Dioxopiperidin-3-yl)-N,3-dimethyl-2-oxo-2,3-dihydro-1H-benzo[d]imidazole-5-carboxamide]",1000 to 10000
12,"CCNC(=O)NCc1ccc2c(c1)n(C)c(=O)n2C1CCC(=O)NC1=O (centres unmarked) [Compound I-71, 1-((1-(2,6-dioxopiperidin-3-yl)-3-methyl-2-oxo-2,3-dihydro-1H-benzo[d]imidazol-5-yl)methyl)-3-ethylurea]",< 1000
13,"O=C1CC[C@@H](N2C[C@H](c3ccc(Br)cc3)OC2=O)C(=O)N1 [Compound I-72, (R)-3-((S)-5-(4-bromophenyl)-2-oxooxazolidin-3-yl)piperidine-2,6-dione]",< 1000

# Results, then the compound that gave them:
row,IC50 [nM],Structure (SMILES)
1,< 1000,"O=C1CCC(N2C[C@H](c3cccc(Br)c3)OC2=O)C(=O)N1 (single isomer, unassigned) [Compound I-84, (R)-3-((S)-5-(3-bromophenyl)-2-oxooxazolidin-3-yl)piperidine-2,6-dione or (S)-3-((S)-5-(3-bromophenyl)-2-oxooxazolidin-3-yl)piperidine-2,6-dione]"
2,10000 to 100000,"O=C1CC[C@H](N2C[C@H](c3ccc(Br)cc3)OC2=O)C(=O)N1 [Compound I-73, (S)-3-((S)-5-(4-bromophenyl)-2-oxooxazolidin-3-yl)piperidine-2,6-dione]"
3,< 1000,"Cn1c(=O)n(C2CCC(=O)NC2=O)c2ccc(CNC(N)=O)cc21 (centres unmarked) [Compound I-74, 1-((1-(2,6-dioxopiperidin-3-yl)-3-methyl-2-oxo-2,3-dihydro-1H-benzo[d]imidazol-5-yl)methyl)urea]"
4,< 1000,"Cn1c(=O)n(C2CCC(=O)NC2=O)c2cccc([N+](=O)[O-])c21 (centres unmarked) [Compound I-75, 3-(3-methyl-4-nitro-2-oxo-2,3-dihydro-1H-1,3-benzodiazol-1-yl)piperidine-2,6-dione]"
5,< 1000,"CCOC(=O)NCc1ccc2c(c1)n(C)c(=O)n2C1CCC(=O)NC1=O (centres unmarked) [Compound I-76, ethyl ((1-(2,6-dioxopiperidin-3-yl)-3-methyl-2-oxo-2,3-dihydro-1H-benzo[d]imidazol-5-yl)methyl)carbamate]"
6,< 1000,"CC(C)(C)OC(=O)NCCOCCOCCOCCOCC#Cc1ccc([C@H]2CN([C@H]3CCC(=O)NC3=O)C(=O)O2)cc1 [Compound I-77, tert-butyl (15-(4-((S)-3-((S)-2,6-dioxopiperidin-3-yl)-2-oxooxazolidin-5-yl)phenyl)-3,6,9,12-tetraoxapentadec-14-yn-1-yl)carbamate]"
7,< 1000,Cn1c(=O)n(C2CCC(=O)NC2=O)c2cccc(C#N)c21 (centres unmarked) [Compound I-78]
8,< 1000,"Cc1cc(-c2ccc3c(c2)n(C)c(=O)n3C2CCC(=O)NC2=O)n[nH]1 (centres unmarked) [Compound I-79, 3-(3-methyl-5-(3-methyl-1H-pyrazol-5-yl)-2-oxo-2,3-dihydro-1H-benzo[d]imidazol-1-yl)piperidine-2,6-dione]"
9,< 1000,"Cc1nc(-c2ccc3c(c2)n(C)c(=O)n3C2CCC(=O)NC2=O)c[nH]1 (centres unmarked) [Compound I-80, 3-(3-methyl-5-(2-methyl-1H-imidazol-5-yl)-2-oxo-2,3-dihydro-1H-benzo[d]imidazol-1-yl)piperidine-2,6-dione]"
10,< 1000,"Cn1c(=O)n(C2CCC(=O)NC2=O)c2cccc(N)c21 (centres unmarked) [Compound I-81, 3-(4-amino-3-methyl-2-oxo-2,3-dihydro-1H-benzo[d]imidazol-1-yl)piperidine-2,6-dione]"
11,< 1000,"Cn1c(=O)n(C2CCC(=O)NC2=O)c2ccc(-c3cn(CCOCCOCCOCCNC(=O)OC(C)(C)C)nn3)cc21 (centres unmarked) [Compound I-82, tert-butyl (2-(2-(2-(2-(4-(1-(2,6-dioxopiperidin-3-yl)-3-methyl-2-oxo-2,3-dihydro-1H-benzo[d]imidazol-5-yl)-1H-1,2,3-triazol-1-yl)ethoxy)ethoxy)ethoxy)ethyl)carbamate]"
12,< 1000,"CC(C)(C)OC(=O)NCCOCCOCCOCCOCCCc1ccc([C@H]2CN(C3CCC(=O)NC3=O)C(=O)O2)cc1 (stereo partly drawn) [Compound I-83, tert-butyl (15-(4-((5S)-3-(2,6-dioxopiperidin-3-yl)-2-oxooxazolidin-5-yl)phenyl)-3,6,9,12-tetraoxapentadecyl)carbamate]"
13,< 1000,"Cn1c(=O)n(C2CCC(=O)NC2=O)c2ccc(CCCOCCOCCOCCOCCNC(=O)OC(C)(C)C)cc21 (centres unmarked) [Compound I-85, tert-butyl (15-(1-(2,6-dioxopiperidin-3-yl)-3-methyl-2-oxo-2,3-dihydro-1H-benzo[d]imidazol-5-yl)-3,6,9,12-tetraoxapentadecyl)carbamate]"
14,< 1000,"Cn1c(=O)n(C2CCC(=O)NC2=O)c2cccc(C#CCOCCOCCNC(=O)OC(C)(C)C)c21 (centres unmarked) [Compound I-86, tert-butyl (2-(2-((3-(1-(2,6-dioxopiperidin-3-yl)-3-methyl-2-oxo-2,3-dihydro-1H-benzo[d]imidazol-4-yl)prop-2-yn-1-yl)oxy)ethoxy)ethyl)carbamate]"
15,> 100000,"Cn1c(=O)n(C2CCC(=O)NC2=O)c2ccc(C(N)=O)cc21 (centres unmarked) [Compound I-90, 1-(2,6-dioxopiperidin-3-yl)-3-methyl-2-oxo-2,3-dihydro-1H-benzo[d]imidazole-5-carboxamide]"
